Experimental findings from paper PMC9490236, “Accurate de novo design of membrane-traversing macrocycles” (Cell, 2022) are described below.

As a reminder, the Papp is the rate of passage across a membrane or cell layer, normalised by area and donor concentration.

Data set [1] is described as follows: Caco-2 permeability assay (apical to basolateral). It counts as in vitro ADME, human. On the set-up: Caco_R1 / Caco_R3: unit not given here. Particulars: Caco-2, average of 3 replicates; read-out: Caco_Papp_Average. On the procedure:
(§1) Human colon adenocarcinoma-derived Caco-2 cell line was used as a model system to investigate the intestinal epithelial permeability of our designs. Caco-2 cells were propagated in T125 flasks (Corning, Merck) using Dulbecco’s modified Eagle medium supplemented with 10% (v/v) fetal bovine serum, 1% (v/v) nonessential amino acids, and 1% (v/v) penicillin-streptomycin (Gibco, Thermo Fisher Scientific) at 37°C in an atmosphere of 5% CO2. Cells were subcultured when they reached 80% confluence.
(§2) The permeability of designed peptides was evaluated using an accelerated 6-day Caco-2 permeability assay as described previously ([Sevin et al., 2013]). In brief, cells were seeded into the 12-well Transwell plates with 0.4 μm polyester membrane inserts (Corning, Merck) to give 4.0 × 10^5 cells/well. The complete assay medium contained Dulbecco’s modified Eagle medium supplemented with 10% (v/v) fetal bovine serum, 1% (v/v) nonessential amino acids, and 0.4 μg/mL puromycin. The medium in plates was renewed every second day. The inserts received 0.75 mL of assay medium in the upper compartment (apical chamber) and 1.5 mL in the bottom compartment (basolateral chamber) individually. After 6-day incubation or until the cells formed monolayers, the medium in the apical and basolateral chamber was replaced with peptide solutions at 50 μM or Hanks' Balanced Salt Solution (HBSS), separately. The plates were incubated for 90 min at 37°C on an orbital shaker (60 rpm). The peptide concentration of solutions in the apical and basolateral compartments was subsequently quantified using LC-MS (Qstar Elite, AB Sciex Australia) to evaluate the transmembrane flux of peptides in the apical-to-basolateral direction. Membrane integrity of the Caco-2 cell monolayer was validated using trans-epithelial electrical resistance (TEER) measurements before and after the assays. Atenolol and quinidine were included as negative and positive controls in all assays.
In general terms: Caco-2 monolayers are a common model of the intestinal barrier.

Another data set concerns Caco-2 cells. Nature of the data set: Caco-2 permeability assay (apical to basolateral). The format is in vitro ADME, human. On the set-up: Caco_R1 / Caco_R3: unit not given here. How it is done: as §1, §2
For data set [2] the following is noted: PAMPA. Background: PAMPA measures passive passage across an artificial lipid membrane.
A short description of the next data set: in vitro. The conditions noted are these: PAMPA, PAMPA_Papp_Avg.

Where a SMILES comes first, the peptide text is derived from it. [ ]: non-standard residue; d: D form. NMeF = CN[C@@H](Cc1ccccc1)C(=O)O; dNMeF = CN[C@H](Cc1ccccc1)C(=O)O; NMeL = CN[C@@H](CC(C)C)C(=O)O; dNMeL = CN[C@H](CC(C)C)C(=O)O; NMeV = CN[C@H](C(=O)O)C(C)C; NMeA = CN[C@@H](C)C(=O)O; dNMeA = CN[C@H](C)C(=O)O; Sar = CNCC(=O)O

Turning to `CC[C@@H](C)[C@H]1NC(=O)[C@H](CC(C)C)NC(=O)[C@@H](CC(C)C)NC(=O)[C@H](C(C)C)NC(=O)[C@@H](Cc2ccccc2)N(C)C(=O)[C@@H]2CCCN2C(=O)[C@@H](CC(C)C)NC(=O)[C@H](CC(C)C)NC(=O)[C@H]2CCCN2C1=O` (single isomer, unassigned) [Design D9.4.p1, LEU DILE DPRO LEU DLEU PRO *DPHE VAL DLEU], the Papp A→B in data set [1] was 3.76 ×10⁻⁶ cm/s. This compound also returned a Caco_R1 in the data set on Caco-2 cells (Caco-2 Papp, replicate 1) of 3.39. The same compound came in with a Caco_R3 in the data set on Caco-2 cells (Caco-2 Papp, replicate 3) of 6.

Consider `CC[C@@H](C)[C@H]1NC(=O)[C@H](CC(C)C)NC(=O)[C@@H](CC(C)C)NC(=O)[C@H](C(C)C)NC(=O)[C@@H](Cc2ccccc2)N(C)C(=O)[C@@H]2CCCN2C(=O)[C@@H](CC(C)C)NC(=O)[C@H](CC(C)C)NC(=O)[C@H]2CCCN2C1=O` (single isomer, unassigned) [Design D9.4.p2, LEU DILE DPRO LEU DLEU PRO *DPHE VAL DLEU], for which, in the data set with Caco-2 cells (Caco-2 Papp, replicate 1), the Caco_R1 is given as 3.27. The compound further yielded a Caco_R3 with Caco-2 cells (Caco-2 Papp, replicate 3) of 2.03.

As for `CC[C@H](C)[C@@H]1NC(=O)[C@H](Cc2ccccc2)N(C)C(=O)[C@H](CC(C)C)N(C)C(=O)[C@@H](C(C)C)NC(=O)[C@@H](C)NC(=O)[C@@H]2CCCN2C(=O)[C@@H](CC(C)C)NC(=O)[C@@H]2CCCN2C(=O)[C@H](C)NC1=O` (single isomer, unassigned) [Design D9.6.p1], in data set [1], the Papp A→B turned out to be 4.51 ×10⁻⁶ cm/s. For the same compound, the Caco_R1 in the data set on Caco-2 cells (Caco-2 Papp, replicate 1) came to 4.759. This compound displayed a Caco_R3 with Caco-2 cells (Caco-2 Papp, replicate 3) of 4.47.

In the data set on Caco-2 cells (Caco-2 Papp, replicate 1), `CC[C@H](C)[C@@H]1NC(=O)[C@H](Cc2ccccc2)N(C)C(=O)[C@H](CC(C)C)N(C)C(=O)[C@@H](C(C)C)NC(=O)[C@@H](C)NC(=O)[C@@H]2CCCN2C(=O)[C@@H](CC(C)C)NC(=O)[C@@H]2CCCN2C(=O)[C@H](C)NC1=O` (single isomer, unassigned) [Design D9.6.p2] displayed a Caco_R1 of 3.08. The compound also had a Caco_R3 with Caco-2 cells (Caco-2 Papp, replicate 3) of 7.44.

In the data set on Caco-2 cells (Caco-2), `CC(C)C[C@@H]1NC(=O)[C@@H]2CCCN2C(=O)[C@@H](Cc2ccccc2)NC(=O)[C@H](C)N(C)C(=O)[C@H](CC(C)C)NC(=O)[C@H](CC(C)C)N(C)C(=O)[C@@H](C)NC(=O)[C@@H](CC(C)C)NC(=O)[C@@H]2CCCN2C(=O)[C@@H](Cc2ccccc2)NC1=O` (single isomer, unassigned) [Design D10.2.p2, LEU DPHE PRO DLEU DALA *LEU LEU *ALA DPHE PRO] came in with a Caco_Papp_Average of 0, a Caco_R1 of 0 and a Caco_R3 of 0. Besides, in data set [2], the PAMPA_Papp_Avg is 3.60E-07, the PAMPA_R1 was 4.31E-07 and the PAMPA_R3 is 4.68E-07.

On to `CC(C)C[C@@H]1NC(=O)[C@H](C)NC(=O)[C@@H]2CCCN2C(=O)[C@H]2CCCN2C(=O)[C@H](Cc2ccccc2)NC(=O)[C@H]2CCCN2C(=O)[C@@H](Cc2ccccc2)N(C)C(=O)[C@@H]2CCCN2C(=O)[C@@H](C)NC(=O)[C@H](CC(C)C)NC1=O` [Design D10.49, DALA PRO *DPHE DPRO PHE DPRO PRO ALA LEU LEU] (cyclo(ALL[dA]P[dNMeF][dP]F[dP]P)), for which, in data set [2], the PAMPA_R1 is recorded as 2.36E-07 and the PAMPA_R3 turned out to be 1.35E-07. Also, the Papp in the data set “in vitro” came to 0.17 ×10⁻⁶ cm/s.

In data set [2], `CC[C@@H](C)[C@H]1NC(=O)[C@H](Cc2ccccc2)N(C)C(=O)[C@@H](CC(C)C)N(C)C(=O)[C@H](C(C)C)NC(=O)[C@H](C)NC(=O)[C@@H]2CCCN2C(=O)[C@H](CC(C)C)N(C)C(=O)[C@@H](Cc2ccccc2)N(C)C(=O)[C@H](C)N(C)C(=O)[C@H](C)N(C)C1=O` [Design D10.56, *DPHE *LEU PRO ALA VAL *DLEU *PHE DILE *ALA *ALA] (cyclo(AV[dNMeL][NMeF][dI][NMeA][NMeA][dNMeF][NMeL]P)) gave a PAMPA_R1 of 9.15E-06 and a PAMPA_R3 of 8.95E-06. For the same compound, the Papp in the data set “in vitro” is 9.02 ×10⁻⁶ cm/s.

In data set [2], `CC(C)C[C@@H]1NC(=O)[C@@H](CC(C)C)N(C)C(=O)[C@@H]2CCCN2C(=O)[C@H](CC(C)C)N(C)C(=O)[C@@H](C)NC(=O)[C@@H](CC(C)C)N(C)C(=O)[C@@H]2CCCN2C(=O)CN(C)C(=O)[C@H](CC(C)C)N(C)C(=O)[C@H](Cc2ccccc2)NC1=O` [Design D10.57, *LEU *GLY PRO *DLEU DALA *LEU PRO *DLEU LEU PHE] (cyclo(F[NMeL][Sar]P[dNMeL][dA][NMeL]P[dNMeL]L)) showed a PAMPA_R1 of 2.94E-06 and a PAMPA_R3 of 3.42E-06. In “in vitro”, this compound showed a Papp of 3.05 ×10⁻⁶ cm/s.

In data set [2], `C[C@H]1NC(=O)[C@@H](Cc2ccccc2)NC(=O)[C@H](Cc2ccccc2)N(C)C(=O)[C@H](Cc2ccccc2)N(C)C(=O)[C@@H](Cc2ccccc2)NC(=O)[C@H]2CCCN2C(=O)CNC(=O)[C@@H](C)NC(=O)[C@@H]2CCCN2C(=O)[C@@H](Cc2ccccc2)NC1=O` [Design D10.62, DALA GLY DPRO DPHE *PHE *PHE DPHE DALA DPHE PRO] (cyclo(G[dP][dF][NMeF][NMeF][dF][dA][dF]P[dA])) yielded a PAMPA_R1 of 4.48E-06 and a PAMPA_R3 of 4.48E-06. The Papp in “in vitro” was determined as 4.23 ×10⁻⁶ cm/s.

Take `CC[C@@H](C)[C@H]1NC(=O)[C@H](C)NC(=O)[C@@H](CC(C)C)N(C)C(=O)[C@H](CC(C)C)N(C)C(=O)[C@H](C(C)C)NC(=O)[C@@H]2CCCN2C(=O)[C@@H](CC(C)C)N(C)C(=O)[C@@H](C)N(C)C(=O)[C@@H](Cc2ccccc2)NC(=O)[C@@H]2CCCN2C(=O)[C@H]2CCCN2C1=O` [Design D11.6, VAL *LEU *DLEU ALA DILE DPRO PRO DPHE *DALA *DLEU PRO] (cyclo([dF][dNMeA][dNMeL]PV[NMeL][dNMeL]A[dI][dP]P)): in data set [2], the PAMPA_R1 was determined as 1.24E-06 and the PAMPA_R3 was determined as 7.58E-07. The same compound yielded an apparent permeability (Papp) in the data set “in vitro” of 0.949 ×10⁻⁶ cm/s.

Consider `CC(C)C[C@@H]1NC(=O)[C@@H](C)NC(=O)[C@H]2CCCN2C(=O)[C@@H]2CCCN2C(=O)[C@@H](C(C)C)NC(=O)[C@@H](CC(C)C)N(C)C(=O)[C@H]2CCCN2C(=O)[C@H]2CCCN2C(=O)[C@@H](C)N(C)C(=O)[C@H](CC(C)C)N(C)C(=O)[C@@H](Cc2ccccc2)NC1=O` [Design D11.16, LEU DPHE *LEU *DALA DPRO DPRO *DLEU DVAL PRO DPRO DALA] (cyclo(L[dF][NMeL][dNMeA][dP][dP][dNMeL][dV]P[dP][dA])), for which, in data set [2], the PAMPA_R1 turned out to be 3.70E-07 and the PAMPA_R3 is 4.55E-07. Besides, the Papp in the data set “in vitro” is 0.43 ×10⁻⁶ cm/s.

In data set [2], `CC[C@H](C)[C@@H]1NC(=O)[C@H](C(C)C)NC(=O)[C@@H](CC(C)C)N(C)C(=O)[C@H](Cc2ccccc2)NC(=O)[C@@H](CC(C)C)N(C)C(=O)[C@@H](C)N(C)C(=O)[C@H]2CCCN2C(=O)[C@@H]2CCCN2C(=O)[C@H](CC(C)C)NC(=O)[C@@H](C)N(C)C(=O)[C@@H]2CCCN2C1=O` [Design D11.20, PRO *DALA LEU PRO DPRO *DALA *DLEU PHE *DLEU VAL ILE] (cyclo(F[dNMeL]VIP[dNMeA]LP[dP][dNMeA][dNMeL])) gave a PAMPA_R1 of 1.21E-06 and a PAMPA_R3 of 9.60E-07. Also, the Papp in the data set “in vitro” was 1.29 ×10⁻⁶ cm/s.

As to `CC[C@H](C)[C@@H]1NC(=O)[C@@H]2CCCN2C(=O)[C@H]2CCCN2C(=O)[C@@H](Cc2ccccc2)NC(=O)[C@@H](CC(C)C)N(C)C(=O)[C@H](C(C)C)NC(=O)[C@@H](CC(C)C)NC(=O)[C@@H]2CCCN2C(=O)[C@H]2CCCN2C(=O)[C@@H](C)N(C)C(=O)[C@H](C(C)C)N(C)C1=O` [Design D11.21, PRO ILE *VAL *DALA DPRO PRO DLEU VAL *DLEU DPHE DPRO] (cyclo(I[NMeV][dNMeA][dP]P[dL]V[dNMeL][dF][dP]P)), in data set [2], the PAMPA_R1 was determined as 2.47E-07 and the PAMPA_R3 came to 2.17E-07. In the data set “in vitro”, the Papp was determined as 0.24 ×10⁻⁶ cm/s.

Turning to `CC(C)C[C@H]1NC(=O)[C@@H](C)NC(=O)[C@@H](C)NC(=O)[C@H]2CCCN2C(=O)[C@@H]2CCCN2C(=O)[C@H]2CCCN2C(=O)[C@@H](C)NC(=O)[C@@H](Cc2ccccc2)N(C)C(=O)[C@H]2CCCN2C(=O)[C@@H](CC(C)C)NC(=O)[C@@H](CC(C)C)NC1=O` [Design D11.25, DLEU DPRO *DPHE DALA DPRO PRO DPRO DALA DALA DLEU DLEU] (cyclo([dP][dA][dA][dL][dL][dL][dP][dNMeF][dA][dP]P)), in data set [2], the PAMPA_R1 is given as 3.92E-07 and the PAMPA_R3 came out at 3.97E-07. This compound yielded a Papp in the data set “in vitro” of 0.405 ×10⁻⁶ cm/s.

Consider `CC[C@H](C)[C@@H]1NC(=O)[C@H](C(C)C)N(C)C(=O)[C@H]2CCCN2C(=O)[C@H]([C@@H](C)CC)NC(=O)[C@@H](CC(C)C)N(C)C(=O)[C@@H](C)NC(=O)[C@@H]2CCCN2C(=O)[C@H]2CCCN2C(=O)[C@H](CC(C)C)NC(=O)[C@@H](Cc2ccccc2)NC(=O)[C@H](CC(C)C)NC(=O)[C@H]2CCCN2C1=O` [Design D12.3, DPRO *VAL ILE DPRO LEU DPHE LEU DPRO PRO DALA *DLEU ILE] (cyclo([dA][dNMeL]I[dP][NMeV]I[dP]L[dF]L[dP]P)), for which, in data set [2], the PAMPA_R1 amounted to 7.65E-07 and the PAMPA_R3 is recorded as 9.01E-07. The Papp in “in vitro” was 0.789 ×10⁻⁶ cm/s.
